These results are taken from US20160228434A1, “TREATMENT OF DISEASES CAUSED BY ABNORMAL LYMPHOCYTE FUNCTION WITH AN HDAC6 INHIBITOR” (priority 2013, published 2016).

Assay type in all cases: in vivo
Experiment [1] concerns thymic T cells. In words: Thymic T cell development by flow cytometry in treated NZB/W mice. The conditions noted are these: 16 weeks of treatment. The procedure:
(§1) NZB/W mice were injected intraperitoneally 5 days/week with the vehicle control (DMSO), ACY-738 treatment at 5 mg/kg (low-dose), or ACY-738 treatment at 20 mg/kg (high-dose) beginning at 22-weeks-of-age until euthanization at 38 weeks-of-age. ACY-738 was received from Acetylon Pharmaceuticals for use in all studies. Proteinuria and weight were measured every 2 weeks and blood was collected every four weeks for sera analysis. Proteinuria was measured by a standard semi-quantitative test using Siemens Uristix dipsticks (Siemens Healthcare, Deerfield, Ill., USA). Results were quantified according to the manufacturer's instructions and scored as follows: dipstick reading of 0 mg/dL=0, trace=1, 30-100 mg/dL=2, 100-300 mg/dL=3, 300-2000 mg/dL=4, and 2000+ mg/dL=5.
(§2) A single-cell suspension was obtained from the thymuses and spleens of treated NZB/W mice at 38 weeks-of-age. Briefly, the thymus was removed from each NZB/W mouse and dissociated across a sterile wire mesh in a petri dish containing ice-cold RPMI 1640 medium (Thermo Scientific). RBCs were lysed using RBC lysis buffer and cells were pelleted and washed with PBS. Splenocytes were stained with APC-conjugated CD3, FITC-conjugated CD4, eFluor450 (eF450)-conjugated CD8a, PerCP-CY5.5-conjugated CD25, and PE-conjugated Foxp3. Thymocytes were stained with APC-CD3, FITC-CD4, and PE-CD8 anti-mouse mAbs (eBioscience, San Diego, Calif., USA). Fluorescence was measured using a FACScan flow cytometer and data was analyzed by FlowJo software.
FIG. 4A depicts representative flow cytometry images of thymocytes gated on CD3 and labeled with CD4 and CD8.

For experiment [2], the system named is sera anti-dsDNA, IgG, IgG2a, IgG2b, IgM. In words: Sera anti-dsDNA and Ig isotype levels by ELISA in treated NZB/W mice. The procedure: as §1
Sera were collected prior to initiation of treatment at 22 weeks-of-age and every 4 weeks until euthanization. The mice were anesthetized using isoflurane (Piramal Healthcare, Mumbai, Maharashtra, India) and bled from the retro-orbital sinus. Blood was allowed to clot for 2 hours and then centrifuged for 15 min at 10,000×g. The levels of sera antibodies to dsDNA were measured by ELISA. Sera samples were added to the plate at a 1:100 dilution, followed by a two-fold serial dilution. The plate was read at 380 nm on a Spectramax 340PC microplate spectrophotometer (Molecular Devices, Sunnyvale, Calif., USA). A final dilution of 1:800 was reported.

Experiment [3] has as its system sera TGF-β and IL-1β. As to the kind of experiment: Sera IL-1β and TGF-β levels by ELISA in treated NZB/W mice. As for the experimental part: as §1
IL-1β and TGF-β levels were measured from the sera by ELISA according to the manufacturer's protocol (eBioscience, San Diego, Calif., USA). The plate was read at 450 nm on a microplate spectrophotometer.
IL-1β and TGF-β levels in the sera of NZB/W mice were measured every 4 weeks starting from 22 weeks until euthanization at 38 weeks-of-age (FIG. 8 A-B). At 22 weeks-of-age there were no significant differences in cytokine levels amongst the three groups. As the NZB/W mice aged, sera levels of TGF-β decreased whereas levels of IL-1β increased (FIG. 8 A-B).

The test system of experiment [4] is peripheral B cells (IgM+B220+). In words: Peripheral B cells by flow cytometry in treated NZB/W mice. The following applies: 38-week-old NZB/W mice, either low (5 mg/kg) or high (20 mg/kg) dose. The procedure:
as §1
Blood was collected prior to euthanization using retro-orbital bleeding. RBCs from the peripheral blood were lysed and single cell suspensions were labeled using FITC-conjugated B220 and PerCep710 conjugated IgM anti-mouse mAbs (eBioscience, San Diego, Calif., USA). Mature B cells were identified as IgM^+B220^+ cells. Flow cytometry data was analyzed using FlowJo.
Similarly, a single-cell suspension of peripheral B cells was obtained from the blood of 38-week-old NZB/W mice and stained for IgM and B220. […]

In experiment [5] the test system is Treg cells (CD4+Foxp3+CD25+). In words: Splenic Treg phenotype by flow cytometry in treated NZB/W mice. The conditions noted are these: 38-week-old NZB/W mice, both doses (5 and 20 mg/kg), vs vehicle control. The procedure: as §1
as §2, with “Thymocytes were stained with APC-CD3, FITC-CD4, and PE-CD8 anti-mouse mAbs (eBioscience, San Diego, Calif., USA).” left out, “software. […]” for “software.”

Experiment [6] has as its system splenic B cells. In words: Splenic B cell developmental stages by flow cytometry in treated NZB/W mice. The conditions noted are these: either low (5 mg/kg) or high (20 mg/kg) dose. The procedure:
as §1
Following euthanization, spleens were removed and single-cell suspensions of splenocytes were incubated with PerCP710 conjugated IgM, FITC conjugated AA4.1, PE conjugated CD23, and APC conjugated CD21 anti-mouse mAbs (eBioscience, San Diego, Calif., USA). IgM^+ cells were analyzed for the expression of AA4.1, CD23 and CD21 and divided into the following developmental stages using flow cytometry: T1 (IgM^+ CD23^− AA4.1^+ CD21^−), T2 (IgM^hi CD23^+ AA4.1^+ CD21^+), T3 (IgM^lo CD23^+ AA4.1^+ CD21^+), F0 (IgM^+ CD23^+ AA4.1^− CD21^−), MZ (IgM^+ CD23^− AA4.1^− CD21^+) or B1 (IgM^+ CD23^− AA4.1^− CD21^−). […]

[7] abbreviates: NZB/W mice, 5 and 20 mg/kg, dose-dependent.

“Also recorded” adds a separate entry of the source.

`O=C(NO)c1cnc(NC2(c3ccccc3)CC2)nc1` [ACY-738]: the “percentage of DN (CD3+CD4-CD8-) thymic T cells” value in experiment [1] (NZB/W mice at 38 weeks-of-age, 5 and 20 mg/kg) is recorded as “decreased the percentage of DN T cells in a dose-dependent manner; also recorded: reduced”. Also, in experiment [1] (NZB/W mice at 38 weeks-of-age), the “percentage of CD3+CD4+CD8- single positive thymic T cells” value is “substantial decrease” and the “percentage of CD3+CD4-CD8+ single positive thymic T cells” value is “substantial decrease”. The “double positive (CD3+CD4+CD8+) thymic T cell numbers” value in experiment [1] (NZB/W mice, 5 and 20 mg/kg) is “increased in a dose-dependent manner”. Besides, in experiment [2] (NZB/W mice at 38 weeks-of-age), the “sera IgG2b level” value is recorded as “significantly increased” and the “sera total IgM level” value is reported as “slightly increased; also recorded: no effect”. In addition, the “sera anti-dsDNA” value in experiment [2] (NZB/W mice, 5 mg/kg, vs vehicle control, p<0.05) is “significant decrease”. The “sera anti-dsDNA” value in experiment [2] (NZB/W mice, 20 mg/kg (high dose), 38 weeks-of-age, 16 weeks of treatment, 20 mg/kg) is on record as “prevent an increase in anti-dsDNA; also recorded: more pronounced”. In experiment [2] (setting [7]), the “sera IgG2a level” value is given as “significantly decreased” and the “sera total IgG level” value is listed as “significantly decreased”. Moreover, the “sera IL-1β level” value in experiment [3] (38-week-old NZB/W mice, low and high dose, levels rise with age) is reported as “significantly decreased; also recorded: attenuated the increase”. In experiment [3] (NZB/W mice, 22 to 38 weeks-of-age, 5 and 20 mg/kg, levels fall in vehicle mice with age), the “sera TGF-β level” value is “reverse this trend in a dose-dependent manner; also recorded: attenuated the reduction”. Also, in experiment [4], the “percentage of peripheral B cells (IgM+B220+)” value is “no effect”. Further, the “percentage of splenic Treg cells (CD4+Foxp3+CD25+)” value in experiment [5] is recorded as “significantly increased”. In experiment [6], the “splenic B cell populations (T1, T2, T3, F0, MZ, B1)” value is “did not significantly affect; also recorded: no effect”.
